For 3 molecules, IC50 results are on record in US9340590B2 (priority 2011, dated 2016).

What all share (test): cell-based
For one assay, the target named is hNav1.5 (Homo sapiens, UniProt Q14524). The conditions noted are these: for pIC50: IonWorks Quattro, read-out: IWQ Use Nav1.5.
The target of a further assay is hNav1.7 (Homo sapiens, UniProt Q15858). The assay is classed as cell-based. To be noted: IonWorks Quattro, read-out: IWQ Use Nav1.7.
For the next assay, the target named is hNav1.3 (Homo sapiens, UniProt Q9NY46). The conditions noted are these: IonWorks Quattro, read-out: IWQ Use Nav1.3.

Each structure is given as a SMILES string. pIC50: −log10 of the molar value. Read-outs that look alike come from different tables or passages of the source. Positions of bridges follow the written chain, without caps; N, C: chain ends. Non-standard residues stand in square brackets, D forms with d. Residues, ends and D or L forms follow the SMILES beside them. Phe(4-I) = N[C@@H](Cc1ccc(I)cc1)C(=O)O

hNav1.5, sequence (Q14524 whole entry, looked up): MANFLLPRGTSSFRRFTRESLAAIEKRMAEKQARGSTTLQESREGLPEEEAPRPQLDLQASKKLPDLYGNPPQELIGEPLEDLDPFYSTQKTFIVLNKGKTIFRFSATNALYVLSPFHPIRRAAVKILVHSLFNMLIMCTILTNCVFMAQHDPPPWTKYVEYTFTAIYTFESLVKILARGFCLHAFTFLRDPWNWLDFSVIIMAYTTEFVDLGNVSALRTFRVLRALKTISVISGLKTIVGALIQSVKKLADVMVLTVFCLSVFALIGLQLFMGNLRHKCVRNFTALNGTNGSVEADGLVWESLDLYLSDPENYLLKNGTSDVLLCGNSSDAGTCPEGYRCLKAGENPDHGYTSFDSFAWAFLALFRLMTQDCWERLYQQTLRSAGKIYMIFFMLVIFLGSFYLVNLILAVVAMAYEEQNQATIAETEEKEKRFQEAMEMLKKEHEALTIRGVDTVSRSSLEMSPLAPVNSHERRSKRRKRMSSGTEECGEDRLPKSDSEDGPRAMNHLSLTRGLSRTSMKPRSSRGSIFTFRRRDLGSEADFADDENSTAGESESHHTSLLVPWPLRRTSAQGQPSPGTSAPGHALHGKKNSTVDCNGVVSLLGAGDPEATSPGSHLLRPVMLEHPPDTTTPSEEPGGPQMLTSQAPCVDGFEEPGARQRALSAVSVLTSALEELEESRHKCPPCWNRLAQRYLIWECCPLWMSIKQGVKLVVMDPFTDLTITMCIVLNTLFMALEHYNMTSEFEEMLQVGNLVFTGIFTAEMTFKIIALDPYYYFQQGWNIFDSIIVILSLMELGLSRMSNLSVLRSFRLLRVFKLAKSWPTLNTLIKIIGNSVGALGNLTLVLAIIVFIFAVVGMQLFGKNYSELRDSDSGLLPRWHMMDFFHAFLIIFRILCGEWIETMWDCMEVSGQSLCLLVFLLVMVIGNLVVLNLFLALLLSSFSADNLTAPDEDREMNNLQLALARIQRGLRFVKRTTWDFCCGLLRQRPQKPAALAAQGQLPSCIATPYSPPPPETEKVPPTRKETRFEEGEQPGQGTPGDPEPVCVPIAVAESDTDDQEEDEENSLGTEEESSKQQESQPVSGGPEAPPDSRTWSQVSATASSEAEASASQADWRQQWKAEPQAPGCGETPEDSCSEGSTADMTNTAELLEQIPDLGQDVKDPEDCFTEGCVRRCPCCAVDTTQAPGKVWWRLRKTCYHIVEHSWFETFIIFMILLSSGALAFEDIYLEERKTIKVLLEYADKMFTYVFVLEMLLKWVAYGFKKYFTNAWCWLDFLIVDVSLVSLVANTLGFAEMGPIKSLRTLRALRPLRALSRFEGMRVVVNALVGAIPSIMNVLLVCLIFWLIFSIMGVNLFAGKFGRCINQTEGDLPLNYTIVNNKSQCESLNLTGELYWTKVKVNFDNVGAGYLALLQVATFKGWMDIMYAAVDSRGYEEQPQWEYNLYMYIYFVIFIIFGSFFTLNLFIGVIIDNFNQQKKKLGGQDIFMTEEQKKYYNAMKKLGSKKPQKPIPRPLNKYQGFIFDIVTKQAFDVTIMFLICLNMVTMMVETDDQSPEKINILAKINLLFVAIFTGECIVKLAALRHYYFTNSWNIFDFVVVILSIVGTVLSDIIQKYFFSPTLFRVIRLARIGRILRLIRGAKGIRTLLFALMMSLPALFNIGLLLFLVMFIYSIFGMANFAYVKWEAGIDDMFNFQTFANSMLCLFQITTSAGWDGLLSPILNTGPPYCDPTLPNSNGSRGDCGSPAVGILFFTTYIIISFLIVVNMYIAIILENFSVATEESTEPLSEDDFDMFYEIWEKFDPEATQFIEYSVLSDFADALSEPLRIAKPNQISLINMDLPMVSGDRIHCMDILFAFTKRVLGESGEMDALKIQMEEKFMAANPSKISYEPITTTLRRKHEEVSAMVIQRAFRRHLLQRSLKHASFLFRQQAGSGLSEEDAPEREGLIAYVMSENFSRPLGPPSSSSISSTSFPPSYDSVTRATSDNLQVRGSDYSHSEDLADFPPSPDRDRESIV
hNav1.3, sequence (Q9NY46 whole entry, looked up): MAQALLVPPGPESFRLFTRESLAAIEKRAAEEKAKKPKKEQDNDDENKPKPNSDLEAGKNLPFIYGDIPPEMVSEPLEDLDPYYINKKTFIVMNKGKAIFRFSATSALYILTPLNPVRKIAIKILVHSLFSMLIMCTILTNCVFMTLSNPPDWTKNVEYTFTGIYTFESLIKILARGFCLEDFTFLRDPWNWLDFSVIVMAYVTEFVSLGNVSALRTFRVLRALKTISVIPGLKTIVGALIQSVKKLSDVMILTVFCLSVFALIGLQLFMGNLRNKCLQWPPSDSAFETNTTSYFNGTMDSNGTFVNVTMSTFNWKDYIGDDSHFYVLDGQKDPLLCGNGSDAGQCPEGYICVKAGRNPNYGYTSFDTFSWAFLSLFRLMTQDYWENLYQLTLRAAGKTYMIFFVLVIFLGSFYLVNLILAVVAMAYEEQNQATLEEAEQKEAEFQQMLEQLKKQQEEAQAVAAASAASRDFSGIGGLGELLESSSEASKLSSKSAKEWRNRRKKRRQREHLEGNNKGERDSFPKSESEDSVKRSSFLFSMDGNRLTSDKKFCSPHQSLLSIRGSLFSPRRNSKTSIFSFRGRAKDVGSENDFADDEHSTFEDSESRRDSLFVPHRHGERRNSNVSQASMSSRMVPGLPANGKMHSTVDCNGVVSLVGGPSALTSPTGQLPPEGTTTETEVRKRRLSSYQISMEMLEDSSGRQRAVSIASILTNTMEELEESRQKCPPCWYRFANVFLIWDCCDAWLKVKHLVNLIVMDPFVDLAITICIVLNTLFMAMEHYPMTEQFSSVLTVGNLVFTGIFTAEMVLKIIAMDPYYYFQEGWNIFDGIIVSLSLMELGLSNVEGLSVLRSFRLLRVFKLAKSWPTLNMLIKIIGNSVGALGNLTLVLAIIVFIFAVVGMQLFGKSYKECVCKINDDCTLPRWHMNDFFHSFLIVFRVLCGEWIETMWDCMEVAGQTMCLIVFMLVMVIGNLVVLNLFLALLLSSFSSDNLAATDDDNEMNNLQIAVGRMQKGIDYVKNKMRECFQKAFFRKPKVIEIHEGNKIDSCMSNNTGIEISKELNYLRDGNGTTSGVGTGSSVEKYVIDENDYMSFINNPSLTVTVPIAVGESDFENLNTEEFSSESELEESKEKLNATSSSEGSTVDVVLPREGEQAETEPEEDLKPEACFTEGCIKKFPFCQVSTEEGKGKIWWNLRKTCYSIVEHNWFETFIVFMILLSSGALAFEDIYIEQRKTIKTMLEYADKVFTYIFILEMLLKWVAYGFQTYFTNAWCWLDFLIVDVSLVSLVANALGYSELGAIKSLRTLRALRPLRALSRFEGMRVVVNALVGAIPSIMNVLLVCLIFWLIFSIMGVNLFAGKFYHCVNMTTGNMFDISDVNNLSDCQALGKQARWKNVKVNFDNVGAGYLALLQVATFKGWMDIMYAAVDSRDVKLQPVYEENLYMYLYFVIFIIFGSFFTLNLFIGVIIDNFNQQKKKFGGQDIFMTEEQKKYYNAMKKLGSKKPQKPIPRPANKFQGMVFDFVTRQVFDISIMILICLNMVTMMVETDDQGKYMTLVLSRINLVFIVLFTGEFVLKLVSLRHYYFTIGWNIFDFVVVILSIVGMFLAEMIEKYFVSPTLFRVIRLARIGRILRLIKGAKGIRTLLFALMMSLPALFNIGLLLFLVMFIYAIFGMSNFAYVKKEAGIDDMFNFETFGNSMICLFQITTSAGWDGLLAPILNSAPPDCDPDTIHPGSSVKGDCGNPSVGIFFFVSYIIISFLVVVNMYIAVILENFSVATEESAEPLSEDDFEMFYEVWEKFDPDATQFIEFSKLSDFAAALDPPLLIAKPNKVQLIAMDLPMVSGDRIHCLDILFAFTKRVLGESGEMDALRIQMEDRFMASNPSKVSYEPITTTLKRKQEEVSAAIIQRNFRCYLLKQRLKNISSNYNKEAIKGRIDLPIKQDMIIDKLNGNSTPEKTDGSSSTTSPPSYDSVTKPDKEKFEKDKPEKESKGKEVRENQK

Consider `CC[C@H](C)[C@@H]1NC(=O)[C@@H]2CSSC[C@@H]3NC(=O)[C@H](C(C)C)NC(=O)[C@H](CC(C)C)NC(=O)[C@H](CC(N)=O)NC(=O)[C@@H]4CCCN4C(=O)[C@H](CCCNC(=N)N)NC(=O)[C@H](CSSC[C@H](NC(=O)[C@@H](N)CC(=O)O)C(=O)N[C@@H](CC(C)C)C(=O)NCC(=O)N[C@@H](C)C(=O)N[C@@H](CCSC)C(=O)N[C@@H](CCCNC(=N)N)C(=O)N[C@@H](CCCCN)C(=O)N2)NC(=O)[C@H](CSSC[C@@H](C(=O)N[C@@H](C)C(=O)N[C@@H](Cc2ccc(O)cc2)C(=O)N[C@H](C(=O)N[C@@H](Cc2ccccc2)C(N)=O)C(C)C)NC(=O)[C@H](Cc2c[nH]c4ccccc24)NC(=O)[C@H](CCCCN)NC(=O)[C@H](Cc2c[nH]cn2)NC(=O)[C@H]([C@@H](C)O)NC(=O)[C@H](CCCNC(=N)N)NC(=O)[C@H](CO)NC3=O)NC(=O)[C@H](CCCCN)NC(=O)[C@H](CC(=O)O)NC(=O)[C@H](CC(N)=O)NC(=O)[C@H](CC(=O)O)NC(=O)[C@@H]2CCCN2C1=O` [compound 433] (H-DCLGAMRKCIPDNDKCCRPNLVCSRTHKWCAYVF-NH2; disulfide 2-17, 9-23, 16-30), for which the pIC50 at hNav1.5 (use-dependent block, hNav1.5) is less than 5.30; on hNav1.7 (use-dependent block, hNav1.7), less than 5.30; on hNav1.3 (use-dependent block, hNav1.3), less than 5.30.
Regarding `CC[C@H](C)[C@@H]1NC(=O)[C@@H]2CSSC[C@@H]3NC(=O)[C@H](C(C)C)NC(=O)[C@H](CC(C)C)NC(=O)[C@H](CC(N)=O)NC(=O)[C@@H]4CCCN4C(=O)[C@H](CCCNC(=N)N)NC(=O)[C@H](CSSC[C@H](NC(=O)[C@@H](N)CC(=O)O)C(=O)N[C@@H](CC(C)C)C(=O)NCC(=O)N[C@@H](Cc4ccccc4)C(=O)N[C@@H](CCSC)C(=O)N[C@@H](CCCNC(=N)N)C(=O)N[C@@H](CCCCN)C(=O)N2)NC(=O)[C@H](CSSC[C@@H](C(=O)N[C@@H](CCCCN)C(=O)N[C@@H](Cc2ccc(O)cc2)C(=O)N[C@@H](Cc2ccc(I)cc2)C(=O)N[C@@H](Cc2ccccc2)C(N)=O)NC(=O)[C@H](Cc2c[nH]c4ccccc24)NC(=O)[C@H](CCCCN)NC(=O)[C@H](Cc2c[nH]cn2)NC(=O)[C@H]([C@@H](C)O)NC(=O)[C@H](CCCNC(=N)N)NC(=O)[C@H](CO)NC3=O)NC(=O)[C@H](CCCCN)NC(=O)[C@H](CC(=O)O)NC(=O)[C@H](CC(N)=O)NC(=O)[C@H](CC(=O)O)NC(=O)[C@@H]2CCCN2C1=O` [compound 249] (H-DCLGFMRKCIPDNDKCCRPNLVCSRTHKWCKY[Phe(4-I)]F-NH2; disulfide 2-17, 9-23, 16-30), the pIC50 is 5.11 at hNav1.5 (Table 26, use, […]); 7.05 at hNav1.7 (Table 26, use, […]); 7.22 on hNav1.3 (Table 26, use, […]).
In the case of `CC[C@H](C)[C@@H]1NC(=O)[C@@H]2CSSC[C@@H]3NC(=O)[C@H](C(C)C)NC(=O)[C@H](CC(C)C)NC(=O)[C@H](CC(N)=O)NC(=O)[C@@H]4CCCN4C(=O)[C@H](CCCNC(=N)N)NC(=O)[C@H](CSSC[C@H](NC(=O)[C@@H](N)CC(=O)O)C(=O)N[C@@H](CC(C)C)C(=O)NCC(=O)N[C@@H](C)C(=O)N[C@@H](Cc4ccccc4)C(=O)N[C@@H](CCCNC(=N)N)C(=O)N[C@@H](CCCCN)C(=O)N2)NC(=O)[C@H](CSSC[C@@H](C(=O)N[C@@H](CCCCN)C(=O)N[C@@H](Cc2ccc(O)cc2)C(=O)N[C@H](C(=O)N[C@@H](Cc2ccccc2)C(N)=O)C(C)C)NC(=O)[C@H](Cc2c[nH]c4ccccc24)NC(=O)[C@H](CCCCN)NC(=O)[C@H](Cc2cnc[nH]2)NC(=O)[C@H](CC(C)C)NC(=O)[C@H](CCCNC(=N)N)NC(=O)[C@H](CO)NC3=O)NC(=O)[C@H](CCCCN)NC(=O)[C@H](CC(=O)O)NC(=O)[C@H](CC(N)=O)NC(=O)[C@H](CC(=O)O)NC(=O)[C@@H]2CCCN2C1=O` [compound 263] (H-DCLGAFRKCIPDNDKCCRPNLVCSRLHKWCKYVF-NH2; disulfide 2-17, 9-23, 16-30), the IC50 at hNav1.5 (IWQ Use Nav1.5 (μM)) came to 5 µM. Further, the pIC50 on hNav1.7 (use-dependent block, hNav1.7) is 7.10; at hNav1.3 (use-dependent block, hNav1.3), 7.30.
